Laboratory results taken from US20210277441A1, “METHOD OF SELECTING A POLYPEPTIDE OF INTEREST” (IMPERIAL COLLEGE INNOVATIONS LIMITED, priority 2018, published 2021).

Experiments:
[1] = biological target: Myxococcus stipitatus imine reductase (MsIRED) variant MsIRED-c (best previously described NADH-dependent variant, 5 residue substitutions) (Myxococcus stipitatus, UniProt L7U9F5); assay: Kinetics of MsIRED-c (best previously described NADH-dependent variant), 2-methylpyrroline reduction with NADH; assay type: biochemical; settings: cofactor NADH (0.25 mM); enzyme 1.2675 uM
[2] = biological target: Enterobacter cloacae nitroreductase (EntNFSB) variant EntNFSB-s1, S40A/T41I/F124A, SEQ ID NO: 38 (Enterobacter cloacae, UniProt Q01234, F124A/S40A/T41I); assay: Kinetics of evolved EntNFSB-s1, 2-nitrobenzoic acid reduction with NADH; settings: cofactor NADH; enzyme 1 uM
Chain of Enterobacter cloacae nitroreductase (EntNFSB) variant EntNFSB-s1, S40A/T41I/F124A, SEQ ID NO: 38 (Q01234 whole entry S40A/T41I/F124A): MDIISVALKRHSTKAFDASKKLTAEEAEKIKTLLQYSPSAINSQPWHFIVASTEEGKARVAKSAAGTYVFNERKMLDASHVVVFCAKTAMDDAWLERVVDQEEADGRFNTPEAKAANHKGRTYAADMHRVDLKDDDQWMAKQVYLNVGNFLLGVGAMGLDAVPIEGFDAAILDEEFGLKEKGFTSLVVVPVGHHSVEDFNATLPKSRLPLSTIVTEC

[3] = biological target: Enterobacter cloacae nitroreductase (EntNFSB) variant EntNFSB-s2, T41L/Y68L/F124L, SEQ ID NO: 40 (Enterobacter cloacae, UniProt Q01234, F124L/T41L/Y68L); assay type: biochemical; settings: cofactor NADH; enzyme 1 uM
Chain of Enterobacter cloacae nitroreductase (EntNFSB) variant EntNFSB-s2, T41L/Y68L/F124L, SEQ ID NO: 40 (Q01234 whole entry T41L/Y68L/F124L): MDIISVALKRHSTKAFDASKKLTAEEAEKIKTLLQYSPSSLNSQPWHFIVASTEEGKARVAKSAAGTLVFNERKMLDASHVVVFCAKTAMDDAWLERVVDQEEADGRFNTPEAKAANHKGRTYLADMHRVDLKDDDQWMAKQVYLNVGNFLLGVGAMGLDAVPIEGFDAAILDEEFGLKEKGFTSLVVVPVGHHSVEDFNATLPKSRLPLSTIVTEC

[4] = system: LS5 strain; assay: Metabolic complementation (anaerobic growth) of quadruple mutant; assay type: cell-based, Escherichia coli
Method: (§1) The LS1 mutant strain and the parental BW25113 strain were transformed with the desired plasmid and overnight pre-cultures were grown aerobically in 15 mL Falcon tubes with M9 media (0.4% glucose). These pre-cultures were used to inoculate 10 mL Hungate tubes with M9 medium (0.4% glucose) supplemented with 100 μg/mL ampicillin, 1 mM IPTG and with or without the specific substrate of the dehydrogenase under anaerobic conditions at 37° C. Metabolic complementation was assessed by measuring the optical density at 600 nm every two hours during daytime.
Since in the triple mutants the non-deleted transhydrogenase could still be supporting anaerobic growth under anaerobic fermentation conditions when complemented with an NADPH-dependent oxidoreductase by generating oxidized NAD, the inventors generated a quadruple mutant where adhE, ldhA, sthA and pntA genes were deleted (LS5 strain, FIG. 11).

[5] = system: LS1 strain (ΔadhE ΔldhA double mutant) cells; assay: Metabolic complementation (anaerobic growth recovery) of LS1/AL strain; assay type: cell-based, Escherichia coli; settings: LS1, no exogenous substrate
Method: as §1

[6] = system: AL cells; assay: 1H NMR analysis of fermentation broth of anaerobic cultures; assay type: cell-based, Escherichia coli; settings: no exogenous substrate

CC1=NCCC1 [2-methylpyrroline, 2-methyl-1-pyrroline]
Km [1]: 41.8 mM
kcat [1]: 1.993 s⁻¹

O=C(O)c1ccccc1[N+](=O)[O-] [2-nitrobenzoic acid]
kcat [2]: 0.0195 s⁻¹

O=[N+]([O-])c1ccc(CO)cc1 [4-nitrobenzyl alcohol]
Km [3]: 1.11 mM
kcat [3]: 0.0725 s⁻¹

pLS1: pUC19 with ADH NADH-dependent from Escherichia coli (adhE)
anaerobic growth [4]: anaerobic growth is restored
anaerobic growth recovery [5]: restoration of ability to grow anaerobically
Acetate concentration [6]: 12.1
Ethanol concentration [6]: 13.8
Formate concentration [6]: 20.7
Lactate concentration [6]: 0
Succinate concentration [6]: 5.2
